Patent US20220119375A1, “3-ARYLOXY-3-ARYL-PROPYLAMINE COMPOUND AND USES THEREOF” (Zhangzhou Pien Tze Huang Pharmaceutical Co., Ltd., priority 2018, published 2022)
Where two headings read alike, the source gives them in different places.

How the values were obtained:
TRPA1 = target: T1, TRPA1 (Mus musculus, UniProt Q8BLA8); assay: IonWorks Barracuda (IWB) automated patch clamp detection of TRPA1 inhibitory activity; type: cell-based, mouse (mTRPA1); settings: automated patch clamp (IWB)
T1 construct: expressed in transfected cells; host or cells: HEK293
T1 sequence (Q8BLA8 whole entry): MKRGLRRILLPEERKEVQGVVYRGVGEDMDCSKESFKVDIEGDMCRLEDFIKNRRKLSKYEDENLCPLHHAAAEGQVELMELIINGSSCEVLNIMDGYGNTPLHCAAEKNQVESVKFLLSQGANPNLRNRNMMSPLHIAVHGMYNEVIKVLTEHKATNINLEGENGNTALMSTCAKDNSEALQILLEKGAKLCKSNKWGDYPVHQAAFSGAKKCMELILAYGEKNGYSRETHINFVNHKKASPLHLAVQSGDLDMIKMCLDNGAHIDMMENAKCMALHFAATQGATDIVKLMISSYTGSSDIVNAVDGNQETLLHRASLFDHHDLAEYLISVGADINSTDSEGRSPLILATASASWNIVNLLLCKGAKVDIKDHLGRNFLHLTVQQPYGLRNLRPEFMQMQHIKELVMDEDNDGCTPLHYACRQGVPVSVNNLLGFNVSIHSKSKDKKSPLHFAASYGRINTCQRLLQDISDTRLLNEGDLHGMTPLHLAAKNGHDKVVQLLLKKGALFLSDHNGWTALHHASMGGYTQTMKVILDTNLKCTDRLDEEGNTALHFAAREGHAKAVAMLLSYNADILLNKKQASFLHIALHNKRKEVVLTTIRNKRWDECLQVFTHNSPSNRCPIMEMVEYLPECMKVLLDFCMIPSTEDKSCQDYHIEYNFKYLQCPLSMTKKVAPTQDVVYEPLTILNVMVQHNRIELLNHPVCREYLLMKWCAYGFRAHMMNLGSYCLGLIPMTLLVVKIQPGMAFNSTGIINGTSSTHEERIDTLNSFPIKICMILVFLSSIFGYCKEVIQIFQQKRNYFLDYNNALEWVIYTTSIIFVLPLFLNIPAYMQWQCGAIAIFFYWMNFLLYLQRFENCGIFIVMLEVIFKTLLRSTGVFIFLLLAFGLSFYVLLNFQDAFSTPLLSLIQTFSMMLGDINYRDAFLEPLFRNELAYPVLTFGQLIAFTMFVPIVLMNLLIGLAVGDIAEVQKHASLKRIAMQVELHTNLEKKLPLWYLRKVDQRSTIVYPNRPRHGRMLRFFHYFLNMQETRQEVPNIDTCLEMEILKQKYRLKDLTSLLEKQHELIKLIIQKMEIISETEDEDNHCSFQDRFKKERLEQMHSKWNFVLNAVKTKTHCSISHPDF
Procedure: The inhibitory activity of some compounds in the Examples of present invention on transient receptor potential channel protein TRPA1 was tested in this example. The compound of formula A (WO2010075353) was used as a positive control compound: […]
IonWorks Barracuda (IWB) automated patch clamp detection was used as test method: HEK293 cells stably expressing TRPA1 were placed in DMEM medium containing 15 μg/mL Blasticidin S HCl, 200 μg/mL Hygromycin B and 10% FBS in the T175 culture flask, and cultured in 37° C., 5% CO2 incubator. When the cell density reached about 80%, the culture medium was removed, rinsed with phosphate buffered saline (PBS) without calcium and magnesium. 3 mL of Trypsin was added to digest for 2 min, 7 mL of culture medium was added to terminate the digestion. The cells were collected to 15 mL centrifuge tube and centrifuged at 800 rpm for 3 min. After the supernatant was removed, the cells were added to appropriate volume of extracellular fluid for re-suspending, and the cell density was controlled at 2-3×10^6/mL for IWB experiment. Extracellular fluid formulation (in mM): 140 NaCl, 5 KCl, 1 MgCl2, 10 HEPES, 0.5 EGTA, 10 Glucose (pH 7.4); intracellular fluid formulation (in mM): 140 CsCl, 10 HEPES, 5 EGTA, 0.1 CaCl2, 1 MgCl2 (pH 7.2). 28 mg/mL of amphotericin B was freshly prepared with DMSO on the day of experiment, and then final concentration of 0.1 mg/mL was prepared with intracellular fluid.
Population patch clamp (PPC) plate was used in IWB experiment. The entire detection process was automatically carried out by the instrument. Extracellular fluid was added into 384 wells of PPC plate, and 6 µL of the intracellular fluid was added into plenum (under the PPC plate), 6 µL of cell fluid was added for sealing test, and finally the intracellular fluid in plenum was replaced with amphotericin B-containing intracellular fluid to establish a whole-cell recording mode after perforating sealed cells. The sampling frequency for recording TPRA1 current was 10 kHz, the cells were clamped at 0 mV, the voltage stimulation command (channel protocol) was a ramp voltage from −100 mV to +100 mV for 300 ms. This voltage stimulation was applied every 10 s, mTRPA1 current was induced by 300 µM AITC.
Data recording and current amplitude measurement export were carried out by IWB software (version 2.5.3, Molecular Devices Corporation, Union City, Calif.). No statistics was recorded for holes with sealing impedance lower than 20 MΩ. The original current data was corrected by software for leakage reduction. TRPA1 current amplitude was measured at +100 mV. […] If IC50 value of HC030031 exceeded 3 times the average IC50 value previously obtained on each plate, it would be re-tested. The dose-effect curve of compounds and IC50 were fitted and calculated by GraphPad Prism 5.02 (GraphPad Software, San Diego, Calif.).

HepG2 cell = assay: Cytotoxicity test (CCK-8), hepatotoxicity; type: cell-based; settings: Homo sapiens, 72 h
Procedure: HepG-2 and SH—SY5Y cells were placed in 10 cm dish and cultured at 37° C., 5% CO2 in a cell incubator. Trypsin was used to digest and resuspend cells and cells were counted. The cells were transferred to 96-well plate with 8000 cells in a well (100 μl/well). A serial of gradient concentration dilutions of compound with 2-fold dilution were prepared, and the system was 100 μL/well. The supernatant of cell culture system in the 96-well plate was removed on the first day, and fresh-prepared drug concentration system was add into culture plate wells (duplicate wells were set). The cells were cultured at 37° C., 5% CO2 in a cell incubator for 72 h. After the cell culture was completed, the supernatant of cell culture system was removed from 96-well plate, 100 μl of detection solution containing 10% CCK-8 medium was added into each well, and the cells were cultured at 37° C., 5% CO2 in a cell incubator for 1 h. Microplate reader was used to measure the absorbance at 450 nm. Data was processed to calculate cytotoxicity, and IC50 was calculated by GraphPad Prism. […]
A (Dosing): the absorbance of wells containing cells, CCK-8 solution and drug solution.
A (control): the absorbance of wells containing medium and CCK-8 solution and without cells.
A (0 Dosing): the absorbance of wells containing cells and CCK-8 solution but without drug solution.

[1] = tested on: C57BL/6 mice, formalin pain model; assay: mice formalin pain model, dose response (Example 50); type: in vivo, mouse; settings: for Licking time: Phase II, 10-60 min
Procedure: 100 male C57BL/6 mice (9-week aged), were randomly divided into 10 groups to evaluate analgesic activity of two compounds in the mice formalin pain model, and each group had 10 mice. […] Before the start of experiment, the mice were allowed to adapt experimental environment for 72 h with free feeding and drinking water. The test drug was administrated intraperitoneally, and the dosage was as follows:
After administration, the mice were placed in a transparent, ventilated plexiglass cylinder, and 1 h later, 20 μl of 4% formalin solution was injected into the left hind plantar of mice in each group by micro-injector, and claw pain response in mice was recorded in real time by a mini-camera. The time length of licking left claw was used as an indicator of pain response, licking time in 0-10 min (phase I) and 10-60 min (phase II) was observed and recorded, and the statistical analysis was conducted. The half effective dose (ED50) of three compounds was calculated: ED50 referred to the dose of the drug that decreased licking time by half as compared with the blank control group. The smaller the ED50 value was, the lower the effective analgesic dose of the compound was and the stronger the analgesic effect was.

[2] = tested on: C57 mice, hot plate pain model; assay: mice hot plate pain model; type: in vivo, mouse; settings: 10 mg/kg intraperitoneal, hot plate 55±0.1° C., within 60 minutes
Procedure: SPF-grade C57 male mice were placed at hot plate with constant 55±0.1° C. […] If the pain reaction of mice was observed, the mice were taken out immediately to prevent mice from scalding. […] The test compounds were freshly prepared on the day of administration. 0.9% NaCl physiological saline solution was prepared as solvent for later use. Appropriate amount of test compounds were added into required volume of physiological saline and fully suspended, and the concentration of the drug compound in preparation was 1 mg/ml. The standard volume of administration to mice was 10 ml/kg (or 0.1 ml/10 g). […] The administration volume was 10 ml/kg. […] Hot plate observation index: the reaction time of mice on the hot plate at 55±0.1° C. (Time latency). Measurement and recording were conducted at 3 h before administration and 15 min, 30 min, and 60 min after administration. Maximum possible effect (MPE) % was used to evaluate analgesic effect of each compound, i.e., MPE %=[(Post drug latency-baseline latency)/(30-baseline latency)]×100. MPE % at different time points was recorded. The higher the value of MPE % was, the stronger the analgesic effect of the compound was.

IC50 (TRPA1; HEK293 cells stably expressing TRPA1, AITC-induced current at +100 mV, read-out: IC50 (μM) on TRPA1 in the patch clamp detection test) [µM] | Compound | IC50 (TRPA1; read-out: IC50 on TRPA1) [µM] | IC50 (HepG2 cell) [µM] | Licking time ([1]; 1 mg/kg intraperitoneal) [s] | Licking time ([1]; 5 mg/kg intraperitoneal) [s] | Licking time ([1]; 10 mg/kg intraperitoneal) [s] | Licking time ([1]; 20 mg/kg intraperitoneal) [s] | ED50 ([1]; Mus musculus, ip, intraperitoneal, phase II (10-60 min), dose that decreased licking time by half) [mg/kg] | analgesic effect (MPE %) on hot plate [2] | decrease of licking time as compared with blank Vehicle ([1]; 1 mg/kg, phase II (10-60 min))
– | CNCC[C@H](Oc1cccc2ccccc12)c1cccs1 [Duloxetine (S configuration), Duloxetine] | 24.7 | 33 | 259.97 ± 64.44 | 230.49 ± 41.31 | 162.83 ± 36.27 | 72.27 ± 17.29 | 8 | – | –
1 to 5 | CNCC[C@H](Oc1cccc2ccoc12)c1cccs1 [Compound IC-1, (S)-3-(benzofuran-7-yloxy)-N-methyl-3-(thiophen-2-yl)propyl-1-amine] | – | – | – | – | – | – | – | stronger than those of gabapentin and duloxetine | more than 50%
